Experimental data published in patent US8242159B2, “1,3-dihydro-5-isobenzofurancarbonitrile derivatives and pharmaceutical composition thereof for the treatment of premature ejaculation” (Dong-A Pharmaceutical. Co., Ltd, priority 2007, dated 2012).

Test system: Male Wistar rats
Test: p-PCA-induced ejaculation in anesthetized rats (ejaculation-delaying effect)
Format: in vivo, rat
Settings: for Ratio: Number of responding animals/total animal number: 50 mg/kg oral in 1% HPMC, p-PCA 5 mg/kg i.p. 80 min later, observed 30 min; for Latency: Time to display the ejaculatory response: 50 mg/kg oral, p-PCA 5 mg/kg i.p., mean ± standard deviation of responding rats
Experimental: The compounds prepared in the above examples were evaluated to determine whether they have an effect of delaying ejaculation. The evaluation was carried out using an animal model according to a method described in Yonezawa et al., Life Sci. 2000, 67(25) p 3031-9. Male Wistar rats weighing 240-260 g were used. Each compound was suspended in 1% HPMC, and then administered orally to each animal. After 60 min, the animals were anesthetized and fixed. 20 min later, para-chloroamphetamine (p-PCA) was intraperitoneally administered in a dose of 5 mg/kg in order to induce ejaculation. […] An ejaculatory response was considered to be elicited when rhythmic contraction of bulbocavernosus muscles and semen discharge occurs. Six or more animals were used for each compound. A Fisher's […] test was performed for the comparison of the proportion of responding rats (ejaculated rats) to determine significance of difference between a treatment group and a vehicle control. The time to reach ejaculation was expressed as mean±standard deviation.
Each test compound was administered at a dose of 50 mg/kg. Ejaculation was elicited in all seven animals of a control group.

| SMILES | Ratio: Number of responding animals/total animal number | Latency: Time to display the ejaculatory response [s] |
| --- | --- | --- |
| Cc1ccc(C2(CCn3cccn3)OCc3cc(C#N)ccc32)cc1 (centres unmarked) [Ex. 32, 1-{2-(pyrazole-1-yl)ethyl}-1-(4-tolyl)-1,3-dihydro-5-isobenzofurancarbonitrile] | 4/9 | 1000 ± 401 |
| Cc1ccc(C2(CCn3cccn3)OCc3cc(C#N)ccc32)cc1.Cl (centres unmarked) [Ex. 33, 1-{2-(pyrazole-1-yl)ethyl}-1-(4-tolyl)-1,3-dihydro-5-isobenzofurancarbonitrile hydrochloride] | 3/7 | 698 ± 374 |
| CN(C)CCCC1(c2ccc(N(C)C)cc2)OCc2cc(C#N)ccc21 (centres unmarked) [Ex. 34, 1-(4-dimethylaminophenyl)-1-{3-(dimethylamino)propyl}-1,3-dihydro-5-isobenzofurancarbonitrile] | 4/9 | 807 ± 304 |
| CN(C)CCCC1(c2ccc(N(C)C)cc2)OCc2cc(C#N)ccc21.Cl (centres unmarked) [Ex. 36, 1-(4-dimethylaminophenyl)-1-{3-(dimethylamino)propyl}-1,3-dihydro-5-isobenzofurancarbonitrile hydrochloride] | 2/6 | 554 ± 77 |
| CN(C)c1ccc(C2(CCCn3ccnc3)OCc3cc(C#N)ccc32)cc1 (centres unmarked) [Ex. 37, 1-(4-dimethylaminophenyl)-1-{3-(imidazole-1-yl)propyl}-1,3-dihydro-5-isobenzofurancarbonitrile] | 4/7 | 950 ± 241 |
| CN(C)c1ccc(C2(CCCn3ccnc3)OCc3cc(C#N)ccc32)cc1.Cl (centres unmarked) [Ex. 38, 1-(4-dimethylaminophenyl)-1-{3-(imidazole-1-yl)propyl}-1,3-dihydro-5-isobenzofurancarbonitrile hydrochloride] | 4/7 | 764 ± 304 |
| CN(C)CCCC1(c2cccs2)OCc2cc(C#N)ccc21 (centres unmarked) [Ex. 39, 1-{3-(dimethylamino)propyl}-1-(2-thienyl)-1,3-dihydro-5-isobenzofurancarbonitrile] | 5/9 | 854 ± 287 |
| CN(C)CCCC1(c2cccs2)OCc2cc(C#N)ccc21.Cl (centres unmarked) [Ex. 41, 1-{3-(dimethylamino)propyl}-1-(2-thienyl)-1,3-dihydro-5-isobenzofurancarbonitrile hydrochloride] | 1/7 | 702 |
| CN(C)CCC1(c2cccs2)OCc2cc(C#N)ccc21 (centres unmarked) [Ex. 42, 1-{2-(dimethylamino)ethyl}-1-(2-thienyl)-1,3-dihydro-5-isobenzofurancarbonitrile] | 4/9 | 906 ± 275 |
| CN(C)CCC1(c2cccs2)OCc2cc(C#N)ccc21.Cl (centres unmarked) [Ex. 43, 1-{2-(dimethylamino)ethyl}-1-(2-thienyl)-1,3-dihydro-5-isobenzofurancarbonitrile hydrochloride] | 3/7 | 888 ± 275 |
| N#Cc1ccc2c(c1)COC2(CCCn1ccnc1)c1cccs1 (centres unmarked) [Ex. 44, 1-{3-(imidazole-1-yl)propyl}-1-(2-thienyl)-1,3-dihydro-5-isobenzofurancarbonitrile] | 4/7 | 904 ± 350 |
| Cl.N#Cc1ccc2c(c1)COC2(CCCn1ccnc1)c1cccs1 (centres unmarked) [Ex. 46, 1-{3-(imidazole-1-yl)propyl}-1-(2-thienyl)-1,3-dihydro-5-isobenzofurancarbonitrile hydrochloride] | 0/7 |  |
| N#Cc1ccc2c(c1)COC2(CCn1ccnc1)c1cccs1 (centres unmarked) [Ex. 47, 1-{2-(imidazole-1-yl)ethyl}-1-(2-thienyl)-1,3-dihydro-5-isobenzofurancarbonitrile] | 4/7 | 814 ± 278 |
| Cl.N#Cc1ccc2c(c1)COC2(CCn1ccnc1)c1cccs1 (centres unmarked) [Ex. 48, 1-{2-(imidazole-1-yl)ethyl}-1-(2-thienyl)-1,3-dihydro-5-isobenzofurancarbonitrile hydrochloride] | 3/7 | 904 ± 321 |
| N#Cc1ccc2c(c1)COC2(CCCn1cccn1)c1cccs1 (centres unmarked) [Ex. 49, 1-{3-(pyrazole-1-yl)propyl}-1-(2-thienyl)-1,3-dihydro-5-isobenzofurancarbonitrile] | 5/9 | 807 ± 301 |
| Cl.N#Cc1ccc2c(c1)COC2(CCCn1cccn1)c1cccs1 (centres unmarked) [Ex. 50, 1-{3-(pyrazole-1-yl)propyl}-1-(2-thienyl)-1,3-dihydro-5-isobenzofurancarbonitrile hydrochloride] | 3/7 | 979 ± 347 |
| N#Cc1ccc2c(c1)COC2(CCn1cccn1)c1cccs1 (centres unmarked) [Ex. 51, 1-{2-(pyrazole-1-yl)ethyl}-1-(2-thienyl)-1,3-dihydro-5-isobenzofurancarbonitrile] | 4/7 | 1042 ± 451 |
| Cl.N#Cc1ccc2c(c1)COC2(CCn1cccn1)c1cccs1 (centres unmarked) [Ex. 52, 1-{2-(pyrazole-1-yl)ethyl}-1-(2-thienyl)-1,3-dihydro-5-isobenzofurancarbonitrile hydrochloride] | 3/7 | 869 ± 274 |
| N#Cc1ccc2c(c1)COC2(CCCn1ccnc1)c1ccc(F)cc1 (centres unmarked) [Ex. 53, 1-(4-fluorophenyl)-1-{3-(imidazole-1-yl)propyl}-1,3-dihydro-5-isobenzofurancarbonitrile] | 4/9 | 1054 ± 320 |
| Cl.N#Cc1ccc2c(c1)COC2(CCCn1ccnc1)c1ccc(F)cc1 (centres unmarked) [Ex. 54, 1-(4-fluorophenyl)-1-{3-(imidazole-1-yl)propyl}-1,3-dihydro-5-isobenzofurancarbonitrile hydrochloride] | 5/9 | 1247 ± 352 |
| N#Cc1ccc2c(c1)COC2(CCn1ccnc1)c1ccc(F)cc1 (centres unmarked) [Ex. 55, 1-(4-fluorophenyl)-1-{2-(imidazole-1-yl)ethyl}-1,3-dihydro-5-isobenzofurancarbonitrile] | 4/7 | 1450 ± 671 |
| Cl.N#Cc1ccc2c(c1)COC2(CCn1ccnc1)c1ccc(F)cc1 (centres unmarked) [Ex. 56, 1-(4-fluorophenyl)-1-{2-(imidazole-1-yl)ethyl}-1,3-dihydro-5-isobenzofurancarbonitrile hydrochloride] | 2/6 | 606 ± 130 |
| N#Cc1ccc2c(c1)COC2(CCCn1cccn1)c1ccc(F)cc1 (centres unmarked) [Ex. 57, 1-(4-fluorophenyl)-1-{3-(pyrazole-1-yl)propyl}-1,3-dihydro-5-isobenzofurancarbonitrile] | 4/9 | 951 ± 342 |
| Cl.N#Cc1ccc2c(c1)COC2(CCCn1cccn1)c1ccc(F)cc1 (centres unmarked) [Ex. 58, 1-(4-fluorophenyl)-1-{3-(pyrazole-1-yl)propyl}-1,3-dihydro-5-isobenzofurancarbonitrile hydrochloride] | 4/9 | 850 ± 362 |
| N#Cc1ccc2c(c1)COC2(CCn1cccn1)c1ccc(F)cc1 (centres unmarked) [Ex. 59, 1-(4-fluorophenyl)-1-{2-(pyrazole-1-yl)ethyl}-1,3-dihydro-5-isobenzofurancarbonitrile] | 3/7 | 954 ± 287 |
| Cl.N#Cc1ccc2c(c1)COC2(CCn1cccn1)c1ccc(F)cc1 (centres unmarked) [Ex. 60, 1-(4-fluorophenyl)-1-{2-(pyrazole-1-yl)ethyl}-1,3-dihydro-5-isobenzofurancarbonitrile hydrochloride] | 4/9 | 1010 ± 400 |
| N#Cc1ccc2c(c1)COC2(CCCn1ccnc1)c1ccc(Cl)cc1 (centres unmarked) [Ex. 61, 1-(4-chlorophenyl)-1-{3-(imidazole-1-yl)propyl}-1,3-dihydro-5-isobenzofurancarbonitrile] | 3/7 | 930 ± 247 |
| Cl.N#Cc1ccc2c(c1)COC2(CCCn1ccnc1)c1ccc(Cl)cc1 (centres unmarked) [Ex. 62, 1-(4-chlorophenyl)-1-{3-(imidazole-1-yl)propyl}-1,3-dihydro-5-isobenzofurancarbonitrile hydrochloride] | 4/7 | 888 ± 284 |
| N#Cc1ccc2c(c1)COC2(CCn1ccnc1)c1ccc(Cl)cc1 (centres unmarked) [Ex. 63, 1-(4-chlorophenyl)-1-{2-(imidazole-1-yl)ethyl}-1,3-dihydro-5-isobenzofurancarbonitrile] | 3/7 | 904 ± 307 |
| Cl.N#Cc1ccc2c(c1)COC2(CCn1ccnc1)c1ccc(Cl)cc1 (centres unmarked) [Ex. 64, 1-(4-chlorophenyl)-1-{2-(imidazole-1-yl)ethyl}-1,3-dihydro-5-isobenzofurancarbonitrile hydrochloride] | 4/7 | 1032 ± 299 |
